Assay results reported in US20160144031A1, “Photo-Responsive Compounds” (priority 2013, published 2016).

Assays:
[1] = Photolysis rate comparison: Xe flash lamp, 546±10 nm, conversion to hydroxocobalamin monitored at 350 nm; format: physicochemical; settings: 10 μM
Procedure: General procedure: Photolysis was performed using an Oriel Xe flash lamp (800 mJ, 62 Hz) with a selective bandpass filter for 546±10 nm. The conversion of alkylcobalamin to hydroxocoabalmin was determined by monitoring the absorption of the mixture at 350 nm using Perkin Elemer Lambda 2 UV/Vis spectrophotometer. (Taylor, R. T.; Smucker, L.; Hanna, M. L.; Gill, J. Arch. Biochem. Biophys. 1973, 156, 521-533.)

[2] = Photolysis (Xe flash lamp, bandpass filters) and dark storage assessed by UV-Vis and LC/MS; format: physicochemical; settings: for photolysis at 546 nm (LC/MS): 546±10 nm (20 min); for photolysis at 546 nm (LC/MS) / photolysis at 646 nm (UV-Vis, LC/MS) / photolysis at 730 nm (LC/MS) / photolysis at 780 nm (LC/MS): 10 μM; for photolysis at 646 nm (UV-Vis, LC/MS): 646±10 nm (20 min); for photolysis at 730 nm (LC/MS): 730±10 nm (150 min); for photolysis at 780 nm (LC/MS): 780±10 nm (3 h)
Procedure: […] The conversion of alkylcobalamin to hydroxocoabalmin was determined by monitoring the absorption of the mixture at 350 nm using Perkin Elemer Lambda 2 UV/Vis spectrophotometer. (Taylor, R. T.; Smucker, L.; Hanna, M. L.; Gill, J. Arch. Biochem. Biophys. 1973, 156, 521-533.)
[…] The resulting sample (100 μL) was analyzed by LC/MS using a linear gradient binary solvent system (solvent A: 0.1% formic acid/H2O; solvent B: 0.1% formic acid/CH3CN) with a ratio of A:B that varied from 97:3 (0-5 min) to 3:97 (5-18 min).

HeLa cells = assay: Treatment of HeLa cells with colchicine (tubulin staining); format: cell-based; settings: increasing colchicine
Procedure: Treatment of HeLa cells with colchicine. […] Cells are washed 2×1 mL with PBS and blocked for 1 h in 5% donkey serum. […] Metamorph software is employed for imaging analysis.

[3] = administered by IV; cited from earlier work

| Compound | photolysis at 546 nm (LC/MS) [2] | photolysis at 646 nm (UV-Vis, LC/MS) [2] | photolysis at 730 nm (LC/MS) [2] | photolysis at 780 nm (LC/MS) [2] | other results |
| --- | --- | --- | --- | --- | --- |
| C/C1=C2/[N-]C([C@H](CC(N)=O)[C@@]2(C)CCC(=O)NC[C@@H](C)OP(=O)([O-])O[C@H]2[C@@H](O)[C@@H](n3cnc4cc(C)c(C)cc43)O[C@@H]2CO)[C@]2(C)N=C(/C(C)=C3N=C(/C=C4N=C1[C@@H](CCC(N)=O)C\4(C)C)[C@@H](CCC(N)=O)[C@]\3(C)CC(N)=O)[C@@H](CCC(N)=O)[C@]2(C)CC(N)=O.[CH2-][C@H]1O[C@@H](n2cnc3c(N)ncnc32)[C@@H](O)[C@@H]1O.[Co+3] [AdoCbl, Coenzyme B12, reference compound] | produces these products | – | – | – | rate of photolysis at 546 nm [1]: 1.7±0.2 μM^−1/m; photolysis at wavelengths beyond 600 nm (LC/MS) [2]: resistant to photolysis |
| C/C1=C2/[N-][C@H]([C@H](CC(N)=O)[C@@]2(C)CCC(=O)NC[C@H](C)OP(=O)([O-])O[C@H]2[C@@H](O)[C@@H](n3cnc4cc(C)c(C)cc43)O[C@@H]2CO)[C@]2(C)N=C(/C(C)=C3N=C(/C=C4N=C1[C@@H](CCC(N)=O)C\4(C)C)[C@@H](CCC(N)=O)[C@]\3(C)CC(N)=O)[C@@H](CCC(N)=O)[C@]2(C)CC(N)=O.[CH3-].[Co+3] [MeCbl, methylcobalamin] | – | – | – | – | photolysis rate [1]: 31700 ± 3300 M⁻¹ s⁻¹ |
| COc1cc2c(c(OC)c1OC)-c1ccc(OC)c(=O)cc1[C@@H](NC(C)=O)CC2 [colchicine] | – | – | – | – | effect on tubulin networks (HeLa cells): tubulin networks become disrupted |
| Coenzyme B12-ATTO 725 Conjugate [AdoCbl-3] | complete photolysis | partial photolysis | complete photolysis | not at 780 nm | – |
| Coenzyme B12-Dylight® 800 Conjugate [AdoCbl-4] | generated the expected adenosine products | resistant to photolysis | Partial photolysis | generated the expected adenosine products | – |
| Coenzyme B12-SulfoCy5 Conjugate [AdoCbl-2] | produced adenosine products | produced adenosine products | unaffected | unaffected | – |
| coenzyme B12-TAMRA conjugate [AdoCbl-1] | produces these products | – | – | – | rate of photolysis at 546 nm [1]: 2.9±0.3 μM^−1/m; photolysis at wavelengths beyond 600 nm (LC/MS) [2]: resistant to photolysis |
| αMSH: 13 amino acid α-melanocyte stimulating hormone | – | – | – | – | half life [3]: only a few minutes |
